Test results from patent US20260274866A1, “PYRIDO[4,3-D]PYRIMIDINE DERIVATIVES AS MUTANT KRAS G12C INHIBITORS FOR THE TREATMENT OF CANCER” (Frontier Medicines Corporation, priority 2023, published 2026).

What follows are compounds tested against T1, KRAS G12C (GMPPNP-loaded) and cRAF (Ras-binding domain) interaction (Homo sapiens, UniProt P01116, C118S/C51S/C80L/G12C) (assay: AlphaScreen inhibition of KRAS G12C and cRAF binding). Conditions: KRAS G12C preloaded with GTP analogue GMPPNP, 2 hours preincubation.
T1 construct: truncated version comprising amino acids 1-169
T1 sequence (P01116 1-169 isoform P01116-2 G12C/C51S/C80L/C118S): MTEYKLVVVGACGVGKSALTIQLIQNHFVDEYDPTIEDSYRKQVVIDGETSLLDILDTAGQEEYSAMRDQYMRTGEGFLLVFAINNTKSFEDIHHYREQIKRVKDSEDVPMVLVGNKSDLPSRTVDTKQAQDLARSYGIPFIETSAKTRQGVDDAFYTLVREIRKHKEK
Format: biochemical
Description: The AlphaScreen technology was used to determine IC50s for compound inhibition of KRAS G12C (present as the Cys-light (C51S, C80L and C118S), truncated version comprising amino acids 1-169) and cRAF interaction. Compounds were diluted in 100% DMSO and each compound concentration was spotted at 200 nl/well onto low volume, white 384 well plates. The KRAS G12C contained a biotin-AviTag and the cRaf, as Ras-binding domain (amino acids 50-131, RBD), was GST-tagged. KRAS G12C was preloaded with the GTP analogue Guanosine 5′-[β,γ-imido]triphosphate (GMPPNP). The KRAS G12C was diluted in 25 mM Hepes, pH 7.4, 150 mM NaCl, 5 mM MgCl2, 0.01% TritonX-100 and 10 μM GMPPNP and added at 10 ul/well to compound-spotted plates resulting in a DMSO concentration of 2%. Plates were incubated for 2 hours. A mixture of RBD and the AlphaScreen streptavidin donor and glutathione acceptor beads diluted in 25 mM Hepes, pH 7.4, 150 mM NaCl, 5 mM MgCl2, 0.01% TritonX-100 and 2% DMSO was then added at 10 ul/well and incubated for 60-90 minutes before the samples were read for emission at 570 nm after excitation of the donor beads at 680 nm. All incubations were performed at room temperature. The final top compound concentration was 50 μM with 1:3 titrations for 10-point dose response curves. Final assay conditions were 0.5 nM KRAS G12C, 0.75 nM RBD and 5 ug/ml each of AlphaScreen donor and acceptor beads. IC50s were determined using nonlinear regression fit of [inhibitor] vs. response (4 parameters).
A counter assay was also set up to rule out inhibitors of the AlphaScreen technology itself. Compound plates were incubated for 2 hours as above with buffer only. The AlphaScreen beads were added as above except biotin-AviTag-GST was substituted for the RBD. Samples were read and analyzed as above.

`C[C@@H](/C=C/C(=O)N1CCN(c2nc(OC[C@@]34CCCN3C[C@H](F)C4)nc3c(F)c(-c4cccc5cccc(Cl)c45)ncc23)C[C@@H]1CC#N)N1C[C@H]2C[C@@H]1CO2` [Compound 26] and `C[C@H](/C=C/C(=O)N1CCN(c2nc(OC[C@@]34CCCN3C[C@H](F)C4)nc3c(F)c(-c4cccc5cccc(Cl)c45)ncc23)C[C@@H]1CC#N)N1C[C@H]2C[C@@H]1CO2` [Compound 25] fall in the same range of IC50: 0.01 to 0.1 µM for the first, 0.01 to 0.1 µM for the second.

`C[C@@H](/C=C/C(=O)N1CC[C@@H](N(C)c2nc(OC[C@@]34CCCN3C[C@H](F)C4)nc3c(F)c(-c4cccc5cccc(Cl)c45)ncc23)C1)N(C)C` [Compound 2] and `C[C@@H](/C=C/C(=O)N1CC[C@@H](N(C)c2nc(OC[C@@]34CCCN3C[C@H](F)C4)nc3c(F)c(-c4cccc5ccc(F)c(F)c45)ncc23)C1)N(C)C` [Compound 10, (S,E)-1-((R)-3-((7-(7,8-difluoronaphthalen-1-yl)-8-fluoro-2-(((2R,7aS)-2-fluorotetrahydro-1H-pyrrolizin-7a(5H)-yl)methoxy)pyrido[4,3-d]pyrimidin-4-yl)(methyl)amino)pyrrolidin-1-yl)-4-(dimethylamino)pent-2-en-1-one] cannot be ordered by IC50: less than 0.01 µM for the first, less than 0.01 µM for the second.

First: C[C@H](/C=C/C(=O)N1CCN(c2nc(OC[C@@]34CCCN3C[C@H](F)C4)nc3c(F)c(-c4cccc(Cl)c4C4CC4)ncc23)C[C@@H]1CC#N)N(C)C [Compound 44, 2-((S)-4-(7-(3-chloro-2-cyclopropylphenyl)-8-fluoro-2-(((2R,7aS)-2-fluorotetrahydro-1H-pyrrolizin-7a(5H)-yl)methoxy)pyrido[4,3-d]pyrimidin-4-yl)-1-((R,E)-4-(dimethylamino)pent-2-enoyl)piperazin-2-yl)acetonitrile]
Second: C[C@@H](/C=C/C(=O)N1CCN(c2nc(OC[C@@]34CCCN3C[C@H](F)C4)nc3c(F)c(-c4cccc(Cl)c4C(F)(F)F)ncc23)C[C@@H]1CC#N)N(C)C [Compound 47, 2-((S)-4-(7-(3-chloro-2-(trifluoromethyl)phenyl)-8-fluoro-2-(((2R,7aS)-2-fluorotetrahydro-1H-pyrrolizin-7a(5H)-yl)methoxy)pyrido[4,3-d]pyrimidin-4-yl)-1-((S,E)-4-(dimethylamino)pent-2-enoyl)piperazin-2-yl)acetonitrile]
The IC50 of the first is lower: 0.01 to 0.1 µM for the first, no less than 0.5 µM for the second.

`C[C@@H](/C=C/C(=O)N1CCN(c2nc(OC[C@@]34CCCN3C[C@H](F)C4)nc3c(F)c(-c4cccc5cccc(Cl)c45)ncc23)C[C@@H]1CC#N)N1C[C@@H]2C[C@H]1CO2` [Compound 41] and `CC(/C=C/C(=O)N1CCN(c2nc(OC[C@@]34CCCN3C[C@H](F)C4)nc3c(F)c(-c4cccc5cccc(Cl)c45)ncc23)C[C@@H]1CC#N)N1CC[C@H](F)C1` (stereo partly drawn) [Compound 28] fall in the same range of IC50: 0.01 to 0.1 µM for the first, 0.01 to 0.1 µM for the second.

`C[C@@H](/C=C/C(=O)N1CCN(c2nc(OCC34CCCN3CCC4)nc3c2CCN(c2cccc4cccc(Cl)c24)C3)C[C@@H]1CC#N)N1CCOCC1` [Compound 22] and `C[C@@H](/C=C/C(=O)N1CCN(c2nc(OC[C@@]34CCCN3C[C@H](F)C4)nc3c(F)c(-c4cccc5cccc(Cl)c45)ncc23)C[C@@H]1CC#N)N1CCOCC1` [Compound 24] fall in the same range of IC50: 0.01 to 0.1 µM for the first, 0.01 to 0.1 µM for the second.

`CO[C@H]1CCN([C@H](C)/C=C/C(=O)N2CCN(c3nc(OC[C@@]45CCCN4C[C@H](F)C5)nc4c(F)c(-c5cccc6ccc(F)c(Cl)c56)ncc34)C[C@@H]2CC#N)C1` [Compound 20, 2-((S)-4-(7-(8-chloro-7-fluoronaphthalen-1-yl)-8-fluoro-2-(((2R,7aS)-2-fluorotetrahydro-1H-pyrrolizin-7a(5H)-yl)methoxy)pyrido[4,3-d]pyrimidin-4-yl)-1-((R,E)-4-((S)-3-methoxypyrrolidin-1-yl)pent-2-enoyl)piperazin-2-yl)acetonitrile] and `CO[C@@H]1CCN(C(C)/C=C/C(=O)N2CCN(c3nc(OC[C@@]45CCCN4C[C@H](F)C5)nc4c(F)c(-c5cccc6ccc(F)c(Cl)c56)ncc34)C[C@@H]2CC#N)C1` (stereo partly drawn) [Compound 14] cannot be ordered by IC50: less than 0.01 µM for the first, less than 0.01 µM for the second.

First: C[C@@H](/C=C/C(=O)N1CCN(c2nc(OC[C@@]34CCCN3C[C@H](F)C4)nc3c(F)c(-c4cccc5cccc(Cl)c45)ncc23)C[C@@H]1CC#N)N1CC2CCC(C1)O2 [Compound 43]
Second: CC(/C=C/C(=O)N1CCN(c2nc(OC[C@@]34CCCN3C[C@H](F)C4)nc3c(F)c(-c4cccc5cccc(Cl)c45)ncc23)C[C@@H]1CC#N)N1CC[C@@H](F)C1 (stereo partly drawn) [Compound 29, 2-((2S)-4-(7-(8-chloronaphthalen-1-yl)-8-fluoro-2-(((2R,7aS)-2-fluorotetrahydro-1H-pyrrolizin-7a(5H)-yl)methoxy)pyrido[4,3-d]pyrimidin-4-yl)-1-((E)-4-((R)-3-fluoropyrrolidin-1-yl)pent-2-enoyl)piperazin-2-yl)acetonitrile]
The IC50 of the first is higher: 0.1 to 0.5 µM for the first, less than 0.01 µM for the second.

For `C#Cc1c(F)ccc2cccc(-c3ncc4c(N(C)[C@@H]5CCN(C(=O)/C=C/C(C)N(C)C)C5)nc(OC[C@@]56CCCN5C[C@H](F)C6)nc4c3F)c12` (stereo partly drawn) [Compound 32, (E)-4-(dimethylamino)-1-((R)-3-((7-(8-ethynyl-7-fluoronaphthalen-1-yl)-8-fluoro-2-(((2R,7aS)-2-fluorotetrahydro-1H-pyrrolizin-7a(5H)-yl)methoxy)pyrido[4,3-d]pyrimidin-4-yl)(methyl)amino)pyrrolidin-1-yl)pent-2-en-1-one], the IC50 was less than 0.01 µM.
